In paper PMC9403976, “Elucidating the path to Plasmodium prolyl-tRNA synthetase inhibitors that overcome halofuginone resistance” (Nature Communications, 2022):
Where “and” joins values, the source holds several entries; their conditions need not be identical. Equal values may be shown once. Read-outs that look alike come from different tables or passages of the source.

Key:
[1] = test system: P. falciparum Dd2-2D4; test: P. falciparum asexual blood stage (ABS) growth assay, SYBR Green, 72 h, wild-type parasites; assay type: cell-based, Plasmodium falciparum; conditions: for EC50: Plasmodium falciparum
[2] = test system: HFGR-I P. falciparum (elevated proline homeostasis and PfcProRS^L482H); test: P. falciparum ABS growth assay, SYBR Green, 72 h, HFGR-I parasites; assay type: cell-based, Plasmodium falciparum; conditions: Plasmodium falciparum, DD2
From the text: (§1) Parasites were maintained under standard culture conditions as described previously[56],[57]. […] The P. falciparum Dd2 cell lines used in this study (Dd2-2D4, halofuginone-induced, and HFGR-I) have previously undergone whole genome sequencing in our labs. They were also routinely assayed and EC50 values determined using the ABS growth assay (see below) with a panel of standard antimalarial compounds, including halofuginone which has differential activity for the three Dd2 lines used in these experiments. Data were cross-referenced for consistency with literature reported values and data previously acquired in the lab.
(§2) This assay was performed as previously described. In short, P. falciparum erythrocytic-stage parasites at 1% parasitemia and 1% hematocrit in RPMI + 0.5% Albumax were seeded at 40 μL/well in 384-well plates with test compounds in triplicate, dose-response format with 10 μM dihydroartemisinin as a kill-control and blank (no compound) wells as a growth-control. […] After 72 h, growth was quantified by measuring fluorescence (Molecular Devices SpectraMax iD5) following SYBR Green 1 staining. Data were analyzed in Excel and plotted in PRISM (V. 8.4.3–9.1.0, GraphPad).

[3] = test system: halofuginone-induced P. falciparum (elevated proline homeostasis); test: P. falciparum ABS growth assay, SYBR Green, 72 h, halofuginone-induced parasites; assay type: cell-based, Plasmodium falciparum; conditions: for EC50: Plasmodium falciparum, DD2
From the text: as §1, §2

[4] = biological target: T1, PfcProRS (Plasmodium falciparum, UniProt Q8I5R7); assay type: binding; conditions: for Normalized response, dose-response replicates (SI Fig 14): replicates 1-3, listed as Glyburide (28)
T1 construct: made in house; host or cells: E. coli SoluBL-21

[5] = biological target: HsProRS (Homo sapiens, UniProt P07814); test: TR-FRET ligand displacement assay with tracer MAT379 (CoraFluor-1-Halo and anti-His6 antibody formats); assay type: binding; parameters: made in house; host or cells: E. coli SoluBL-21; conditions: for normalized TR-FRET signal (dose-response replicates): SI Fig 15, listed as Glyburide (28)
[6] = DD2, SI Fig 16b, values on -log scale, read-out: ABS - Dd2-2D4 (converted)
[7] = read-out: Dd2 (EC50 [nM]) HFGR1 mean

Sequence of HsProRS (P07814 996-1512): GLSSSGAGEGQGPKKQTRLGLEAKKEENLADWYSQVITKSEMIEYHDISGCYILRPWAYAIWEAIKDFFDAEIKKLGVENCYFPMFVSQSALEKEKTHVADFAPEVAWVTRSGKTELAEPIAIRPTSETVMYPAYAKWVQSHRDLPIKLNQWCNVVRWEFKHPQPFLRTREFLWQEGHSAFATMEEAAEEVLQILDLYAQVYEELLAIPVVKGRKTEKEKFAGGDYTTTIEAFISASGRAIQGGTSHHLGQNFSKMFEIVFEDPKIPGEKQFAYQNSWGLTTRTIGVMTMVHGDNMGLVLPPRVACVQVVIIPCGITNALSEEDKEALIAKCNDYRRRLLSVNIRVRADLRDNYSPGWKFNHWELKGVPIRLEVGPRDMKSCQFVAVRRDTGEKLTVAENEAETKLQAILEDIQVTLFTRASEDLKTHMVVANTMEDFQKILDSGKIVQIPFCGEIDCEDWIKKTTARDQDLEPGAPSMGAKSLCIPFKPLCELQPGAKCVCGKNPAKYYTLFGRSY
T1 sequence (Q8I5R7 249-746): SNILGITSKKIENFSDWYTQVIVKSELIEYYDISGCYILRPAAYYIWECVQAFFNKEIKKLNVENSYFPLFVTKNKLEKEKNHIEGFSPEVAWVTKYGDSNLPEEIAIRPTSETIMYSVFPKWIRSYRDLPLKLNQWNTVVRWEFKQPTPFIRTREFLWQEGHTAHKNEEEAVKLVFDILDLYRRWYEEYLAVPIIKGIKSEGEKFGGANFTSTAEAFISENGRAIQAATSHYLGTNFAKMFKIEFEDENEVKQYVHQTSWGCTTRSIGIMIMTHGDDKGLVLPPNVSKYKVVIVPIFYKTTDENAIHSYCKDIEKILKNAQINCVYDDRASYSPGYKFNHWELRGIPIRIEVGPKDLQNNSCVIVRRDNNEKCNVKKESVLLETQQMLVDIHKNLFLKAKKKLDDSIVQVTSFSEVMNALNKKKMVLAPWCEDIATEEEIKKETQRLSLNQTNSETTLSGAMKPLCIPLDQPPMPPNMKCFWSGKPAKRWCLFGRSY

`Nc1ncnc2c1ncn2[C@@H]1O[C@H](COS(=O)(=O)NC(=O)[C@H]2CCCN2)[C@@H](O)[C@H]1O` [D-ProSA, reference compound] was tested, and the EC50 [1, 6] was 2550 nM, the EC50 ([1]; DD2, read-out: Dd2 (EC50 [nM]) wildtype (Dd2-2D4) mean) was 2550 nM and the EC50 [2, 7] was 2430 nM. For the same compound, the EC50 ([3]; read-out: Dd2 (EC50 [nM]) halofuginone-induced mean) was 2730 nM.
`COc1ccc(Cl)cc1C(=O)NCCc1ccc(S(=O)(=O)NC(=O)NC2CCCCC2)cc1` [Glyburide, reference compound] was tested, and the “binding mode with respect to substrates (ATP, proline)” value [4] was “ATP- and proline-competitive”, the “selectivity for PfcProRS over HsProRS” value [4] was greater than 30 fold and the “Normalized response, dose-response replicates (SI Fig 14)” value (shortened to “Normalized response”) ([4]; Log[inhibitor] (M) -4.000) was 9.02E-01 and 9.90E-01 and 8.86E-01. For the same compound, the “Normalized response” value ([4]; Log[inhibitor] (M) -4.301) was 1.05E+00 and 1.04E+00 and 1.16E+00, the “Normalized response” value ([4]; Log[inhibitor] (M) -4.601) was 1.10E+00 and 1.11E+00 and 1.09E+00 and the “Normalized response” value ([4]; Log[inhibitor] (M) -4.904) was 1.18E+00 and 1.08E+00 and 1.07E+00. The “Normalized response” value ([4]; Log[inhibitor] (M) -5.208) was 9.30E-01 and 1.21E+00 and 1.10E+00, the “Normalized response” value ([4]; Log[inhibitor] (M) -5.509) was 1.06E+00 and 9.98E-01 and 1.05E+00 and the “Normalized response” value ([4]; Log[inhibitor] (M) -5.796) was 9.95E-01 and 9.65E-01 and 1.02E+00. The “Normalized response” value ([4]; Log[inhibitor] (M) -6.108) was 9.29E-01 and 8.37E-01 and 1.06E+00, the “Normalized response” value ([4]; Log[inhibitor] (M) -6.409) was 9.49E-01 and 9.10E-01 and 8.70E-01 and the “Normalized response” value ([4]; Log[inhibitor] (M) -6.710) was 9.85E-01 and 9.81E-01 and 9.34E-01. The “Normalized response” value ([4]; Log[inhibitor] (M) -7.000) was 1.05E+00 (2×) and 1.07E+00, the “Normalized response” value ([4]; Log[inhibitor] (M) -7.301) was 1.02E+00 and 9.36E-01 and 1.04E+00 and the “Normalized response” value ([4]; Log[inhibitor] (M) -7.602) was 8.75E-01 and 9.05E-01 and 1.01E+00. The “Normalized response” value ([4]; Log[inhibitor] (M) -8.000) was 1.03E+00 and 1.08E+00 and 9.17E-01, the “Normalized response” value ([4]; Log[inhibitor] (M) -8.301) was 1.03E+00 and 8.92E-01 and 1.05E+00 and the EC50 [1, 6] was 75700 nM. For the same compound, the EC50 ([1]; wild-type Dd2-2D4 ABS parasites, 72 h, read-out: Dd2 (EC50 [nM]) wt) was 75600 nM, the “HsProRS % signal at 100 μM, + 100 μM proline” value ([5]; + 100 μM proline, 100 μM) was 92.6% and the Kd ([5]; HsProRS (KD [nM]) + ATP, 500 μM ATP, 250 nM MAT379) was 30900 nM. It also gave a Kd ([5]; HsProRS (KD [nM]) + proline, 100 μM proline, 250 nM MAT379) greater than 50000 nM, a Kd ([5]; HsProRS (KD [nM]) −, absence of substrates, 250 nM MAT379) of 73900 nM and a Kd ([5]; HsProRS KD + 100 μM proline, bound, + 100 μM proline, bound given in μM) greater than 50900 nM. For the same compound, the “normalized TR-FRET signal (dose-response replicates)” value (“normalized TR-FRET signal” for short) ([5]; Log[inhibitor] (M) -3.99976) was 4.60E-01 and 4.45E-01 and 5.24E-01, the “normalized TR-FRET signal” value ([5]; Log[inhibitor] (M) -4.3009) was 6.36E-01 and 5.89E-01 and 6.44E-01 and the “normalized TR-FRET signal” value ([5]; Log[inhibitor] (M) -4.60199) was 8.28E-01 and 7.19E-01 and 8.15E-01. The “normalized TR-FRET signal” value ([5]; Log[inhibitor] (M) -4.90248) was 9.22E-01 and 9.13E-01 and 9.32E-01, the “normalized TR-FRET signal” value ([5]; Log[inhibitor] (M) -5.20323) was 1.00E+00 and 9.33E-01 (2×) and the “normalized TR-FRET signal” value ([5]; Log[inhibitor] (M) -5.51347) was 9.75E-01 (2×) and 1.00E+00. For the same compound, the “normalized TR-FRET signal” value ([5]; Log[inhibitor] (M) -5.79595) was 7.95E-01 and 8.60E-01 and 9.98E-01, the “normalized TR-FRET signal” value ([5]; Log[inhibitor] (M) -6.10794) was 8.65E-01 and 8.44E-01 and 8.55E-01 and the “normalized TR-FRET signal” value ([5]; Log[inhibitor] (M) -6.40526) was 9.62E-01 and 9.85E-01 and 1.00E+00. For the same compound, the “normalized TR-FRET signal” value ([5]; Log[inhibitor] (M) -6.7137) was 9.69E-01 and 9.06E-01 and 9.96E-01, the “normalized TR-FRET signal” value ([5]; Log[inhibitor] (M) -7) was 8.09E-01 and 8.06E-01 and 9.15E-01 and the “normalized TR-FRET signal” value ([5]; Log[inhibitor] (M) -7.331) was 8.96E-01 and 8.92E-01 and 9.69E-01. For the same compound, the “normalized TR-FRET signal” value ([5]; Log[inhibitor] (M) -7.57403) was 9.06E-01 and 7.74E-01 and 8.73E-01, the “normalized TR-FRET signal” value ([5]; Log[inhibitor] (M) -7.87506) was 6.90E-01 and 8.76E-01 and 8.40E-01 and the “normalized TR-FRET signal” value ([5]; Log[inhibitor] (M) -8.17609) was 9.01E-01 and 9.35E-01 and 9.12E-01. The EC50 ([2]; HFGR-I ABS parasites, 72 h, read-out: Dd2 (EC50 [nM]) HFGR-I) was 69600 nM and the EC50 ([3]; halofuginone-induced ABS parasites, 72 h, read-out: Dd2 (EC50 [nM]) Halofuginone-induced) was 73600 nM.
For `CC(C)N(C(=O)Nc1nccnc1C(=O)NC1Cc2ccccc2C1)C(C)C` [MAT107 (5)], the “% signal at 10 μM, wildtype (Dd2-2D4)” value ([1]; wildtype (Dd2-2D4), 10 μM) was 80.9%, the IC50 [5] was greater than 10 µM and the Kd ([5]; HsProRS (KD [nM]) + 100 μM proline mean, + 100 μM proline) was 1020 nM. The “HsProRS % signal at 10 μM” value ([5]; no added proline/ATP (-), 10 μM) was 63.6%, the EC50 [2, 7] was 6850 nM and the EC50 ([3]; halofuginone-induced, bound given in μM, read-out: Dd2 EC50 halofuginone-induced, bound) was greater than 10000 nM. For the same compound, the “% signal at 10 μM, halofuginone-induced” value ([3]; halofuginone-induced, 10 μM) was 58.7%.
